Data on one compound can be found in paper PMC5688156, “The natural product carolacton inhibits folate-dependent C1 metabolism by targeting FolD/MTHFD” (Nature Communications, 2017).

Like-named read-outs stand apart in the source and are kept apart here.

One assay deals with HCT-116. Nature of the assay: Cytotoxicity screening, HCT-116 (MTT). It counts as cell-based, human. The note with it: for EC50: 5 d treatment, MTT. On the procedure: Half maximal effective concentrations (EC50) on human cancer cell lines were determined as described elsewhere. Human cancer cell lines were maintained as recommended by the depositor (German Collection of Microorganisms and Cell Cultures, DSMZ) and were treated for 5 d with carolacton in serial dilution. The viability of adherent cell types, HCT-116 (ACC 581), KB-3.1 (ACC-158) and KB-V.1 (ACC-149) was assessed by the addition of MTT tetrazolium salt and absorbance measurement at 570 nm. Histiocytic lymphoma U-937 cells (ACC-5) were maintained in RPMI 1640 medium and transferred into folate-free medium prior to the assay. Cell viability was determined by measuring alamar blue fluorescence emission at 590 nm. The values were referenced and EC50 values were determined by sigmoidal curve fitting. The cell lines KB-3.1 and KB-V.1 are originally derived from HeLa, whereas the latter is an MDR subclone of KB-3.1. They were used to directly compare the activity of carolacton on an mdr1 overexpressing and a sensitive cell line.

A further assay deals with T1, hsMTHFD2 (Homo sapiens, UniProt P13995).
T1 construct: His-tag (vector pHis-TEV) (cleaved yes); made in house; host or cells: E. coli BL21 (DE3)
T1 sequence (P13995 36-350): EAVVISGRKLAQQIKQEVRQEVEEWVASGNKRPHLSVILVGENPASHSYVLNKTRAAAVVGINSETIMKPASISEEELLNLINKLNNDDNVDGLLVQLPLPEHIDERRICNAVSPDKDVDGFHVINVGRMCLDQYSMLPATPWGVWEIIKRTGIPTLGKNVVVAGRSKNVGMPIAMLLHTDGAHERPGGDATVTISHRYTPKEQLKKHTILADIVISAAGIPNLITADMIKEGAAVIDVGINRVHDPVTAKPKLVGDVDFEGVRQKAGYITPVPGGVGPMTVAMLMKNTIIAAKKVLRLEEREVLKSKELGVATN
Nature of the assay: hsMTHFD2 dehydrogenase (DH) enzyme assay. It is filed as biochemical. On the procedure:
(§1) (6R,S)-5,10-Methylene-5,6,7,8-tetrahydrofolic acid ((6R,S)-5,10-CH2-THF) calcium salt and (6R,S)-5,10-Methenyl-5,6,7,8-tetrahydrofolic acid ((6R,S)-5,10-CH=THF) chloride were purchased from Schircks Laboratories (Bauma, Switzerland) and used as substrates for FolD dehydrogenase and cyclohydrolase enzyme assays, respectively. Only the R-isomer, which accounts for 50% of (6R,S)-5,10-CH2-THF and (6R,S)-5,10-CH=THF, respectively, is used by the enzyme. (6R,S)-5,10-CH2-THF was dissolved in N2-spargeled basic buffer (50 mM Tris-HCl (pH 8.0), 100 mM β-mercaptoethanol) as described by Varshney et al.[25]. (6R,S)-5,10-CH=THF was dissolved in DMSO as a 100 mM stock solution.
Because FolD is a bifunctional enzyme, dehydrogenase and cyclohydrolase activities were determined for FolD enzyme kinetics, respectively. The dehydrogenase activity of FolD was assayed for its substrate 5,10-CH2-THF and cofactor NADP^+ (in the case of MTHFD2, NAD^+ was used as the cofactor) based on monitoring the formation of 5,10-CH=THF, while the cyclohydrolase activity of FolD was determined for its substrate 5,10-CH=THF by monitoring the hydrolysis of […]. The enzyme kinetics for the dehydrogenase activity of all FolDs except hsMTHFD1_DC were determined at 30 °C in 50 mM Tris-HCl (pH 7.5), 30 mM β-mercaptoethanol. The hsMTHFD1_DC dehydrogenase activity was measured in 25 mM MOPS (pH 7.3), 30 mM β-mercaptoethanol at 30 °C. To measure the enzyme kinetic constants for 5,10-CH2-THF, for example in the case of ecFolD, the NADP concentration was fixed at 1 mM and the concentration of 5,10-CH2-THF varied from 5 to 1500 μM (R-isomer). Similarly, to measure the kinetic constants of ecFolD for NADP^+, the concentration of 5,10-CH2-THF (R-isomer) was fixed at 1 mM and the concentration of NADP^+ varied from 10 to 1500 μM. For different FolDs, the varied concentration range of substrates could be different. […] To monitor the formation of 5,10-CH=THF, the absorbance of the reaction mixture was monitored at 350 nm in micro UV cuvettes (BRAND, Essex, Connecticut, USA). The concentration of 5,10-CH=THF produced in the reaction was determined using an extinction co-efficient of 0.0249 μM^−1 cm^−1. […] The consumption of 5,10-CH=THF was measured by recording the absorbance of the reactions at 355 nm using the TECAN Infinite 200 PRO equipped with a monochromator. […] The inhibition constants (K i) of carolacton on FolD were determined by measuring the apparent K m when adding certain amounts of carolacton to the enzyme reactions. […] To compare the inhibition effects of carolacton between the different FolDs, the half maximal inhibitory concentration (IC50) of carolacton on the same amount of enzyme was determined for FolDs involved in this study. […]

Another assay deals with T2, ecFolD G8S (Escherichia coli, UniProt P24186, G8S).
T2 construct: His-tag (TEV-cleavable, vector pHis-TEV); made in house; host or cells: E. coli BL21 (DE3)
Nature of the assay: ecFolD G8S mutant dehydrogenase (DH) enzyme assay. It counts as biochemical, E. coli. On the procedure: as §1
Because FolD is a bifunctional enzyme, dehydrogenase and cyclohydrolase activities were determined for FolD enzyme kinetics, respectively. The dehydrogenase activity of FolD was assayed for its substrate 5,10-CH2-THF and cofactor NADP^+ (in the case of MTHFD2, NAD^+ was used as the cofactor) based on monitoring the formation of 5,10-CH=THF, while the cyclohydrolase activity of FolD was determined for its substrate 5,10-CH=THF by monitoring the hydrolysis of […]. The enzyme kinetics for the dehydrogenase activity of all FolDs except hsMTHFD1_DC were determined at 30 °C in 50 mM Tris-HCl (pH 7.5), 30 mM β-mercaptoethanol. […]

One may read the EC50 as the midpoint of the concentration-response curve. A low value points to greater potency. By IC50 is commonly meant the midpoint of a concentration-inhibition curve. Broadly, the IC80 is the concentration at which the effect reaches the 80% level. One may read the Ki as a dissociation constant, usually derived from enzyme kinetics or from competition with a known ligand. Consider `CO[C@H](CC(=O)O)[C@@H](C)C(=O)[C@H](C)/C=C(\C)[C@H]1OC(=O)[C@H](O)[C@H](O)/C=C/[C@H](C)CCC[C@@H]1C` [carolacton], for which the EC50 came to 24600 ± 800 nM in the assay with HCT-116 and 25000 nM in the assay on HCT-116 (Homo sapiens, HCT-116, 120 h). The Maximum inhibition in the assay on HCT-116 (inhibition of cell growth, 5 d) is >80%. For the same compound, the IC50 worked out at 6.5 nM on hsMTHFD2 (10 nM enzyme, read-out: IC50, carolacton inhibition on DH activity) and 86.5 nM on ecFolD G8S. For the same compound, the IC80 at hsMTHFD2 (10 nM enzyme, read-out: IC80, carolacton inhibition on DH activity) is 31.7 nM; on ecFolD G8S (read-out: IC80, carolacton inhibition on DH activity) it was 737 nM. Besides, the Ki came to 16.7 nM at hsMTHFD2 (cofactor is NAD+ in the case of hsMTHFD2, read-out: Ki (NADP+), carolacton inhibition on DH activity) and 6.42 nM at hsMTHFD2 (vs 5,10-CH2-THF, read-out: Ki (5,10-CH2-THF), carolacton inhibition on DH activity).
